According to ChEMBL document CHEMBL4392848, “Proline-based hydroxamates targeting the zinc-dependent deacetylase LpxC: Synthesis, antibacterial properties, and docking studies” (Bioorg Med Chem, 2019):
Converted amounts (≈) assume the structure as drawn.

What was measured:
Enterobacter cloacae = experiment: Antibacterial activity against Enterobacter cloacae assessed as diameter of inhibition zone measured after 24 hrs by agar disc diffusion method; assay type: functional; note: test concentration or dose not given here
Escherichia coli [1] = experiment: Antibacterial activity against Escherichia coli D22 measured after 20 hrs by microdilution method; assay type: functional; settings: D22, 20 h
Escherichia coli [2] = experiment: Antibacterial activity against Escherichia coli D22 assessed as diameter of inhibition zone measured after overnight incubation by agar disc diffusion method; assay type: functional; note: test concentration or dose not given here
Proteus vulgaris = experiment: Antibacterial activity against Proteus vulgaris assessed as diameter of inhibition zone measured after 24 hrs by agar disc diffusion method; assay type: functional; note: test concentration or dose not given here
Klebsiella aerogenes = experiment: Antibacterial activity against Enterobacter aerogenes assessed as diameter of inhibition zone measured after 24 hrs by agar disc diffusion method; assay type: functional; note: test concentration or dose not given here
Escherichia coli [3] = experiment: Antibacterial activity against Escherichia coli BL21(DE3) measured after 20 hrs by microdilution method; assay type: functional
Proteus mirabilis = experiment: Antibacterial activity against Proteus mirabilis assessed as diameter of inhibition zone measured after 24 hrs by agar disc diffusion method; assay type: functional; note: test concentration or dose not given here
Klebsiella pneumoniae = experiment: Antibacterial activity against Klebsiella pneumoniae assessed as diameter of inhibition zone measured after 24 hrs by agar disc diffusion method; assay type: functional; note: test concentration or dose not given here
Escherichia coli [4] = experiment: Antibacterial activity against Escherichia coli BL21(DE3) assessed as diameter of inhibition zone measured after overnight incubation by agar disc diffusion method; assay type: functional; note: test concentration or dose not given here
Pseudomonas aeruginosa = experiment: Antibacterial activity against Pseudomonas aeruginosa assessed as diameter of inhibition zone measured after 24 hrs by agar disc diffusion method; assay type: functional; note: test concentration or dose not given here
Klebsiella oxytoca = experiment: Antibacterial activity against Klebsiella oxytoca assessed as diameter of inhibition zone measured after 24 hrs by agar disc diffusion method; assay type: functional; note: test concentration or dose not given here
[5] = Inhibition of Escherichia coli LpxC C63A mutant using UDP-3-O-[(R)-3-hydroxymyristoyl]-N-acetylglucosamine as substrate measured after 30 mins by fluorescence based microplate assay
Citrobacter freundii = experiment: Antibacterial activity against Citrobacter freundii assessed as diameter of inhibition zone measured after 24 hrs by agar disc diffusion method; assay type: functional; note: test concentration or dose not given here

Compound	diameter of the inhibition zone (DIZ) (Enterobacter cloacae) [mm]	MIC (Escherichia coli [1]) [µM]	diameter of the inhibition zone (DIZ) (Escherichia coli [2]) [mm]	diameter of the inhibition zone (DIZ) (Proteus vulgaris) [mm]	diameter of the inhibition zone (DIZ) (Klebsiella aerogenes) [mm]	MIC (Escherichia coli [3]) [µM]	diameter of the inhibition zone (DIZ) (Proteus mirabilis) [mm]	diameter of the inhibition zone (DIZ) (Klebsiella pneumoniae) [mm]	diameter of the inhibition zone (DIZ) (Escherichia coli [4]) [mm]	diameter of the inhibition zone (DIZ) (Pseudomonas aeruginosa) [mm]	diameter of the inhibition zone (DIZ) (Klebsiella oxytoca) [mm]	IC50 [5] [µM]	Ki [5] [µM]	diameter of the inhibition zone (DIZ) (Citrobacter freundii) [mm]
O=C(NO)[C@@H]1C[C@H](O)CN1C(=O)c1ccc(C#Cc2ccc(CN3CCC(O)CC3)cc2)cc1	<6	4 (≈ 1.85 µg/mL)	23.7	<6	9	64 (≈ 29.7 µg/mL)	11	<6	15.7	<6	<6	44	6.1	<6
O=C(NO)[C@@H]1CCCN1Cc1ccc(C#Cc2ccc(CN3CCSCC3)cc2)cc1	14	1 (≈ 0.436 µg/mL)	17.7	<6	13	64 (≈ 27.9 µg/mL)	8	14	10.7	<6	11	8.1	1.1	13
O=C(NO)[C@@H]1CCCN1C(=O)c1ccc(C#Cc2ccc(CN3CCS(=O)(=O)CC3)cc2)cc1	10	64 (≈ 30.8 µg/mL)	17	10	8	> 256	9	11	10.7	<6	<6	17.1	2.4	<6
O=C(NO)[C@@H]1C[C@H](O)CN1C(=O)c1ccc(C#Cc2ccc(CN3CCCC3)cc2)cc1	<6	64 (≈ 27.7 µg/mL)	14.3	<6	<6	> 256	<6	<6	<6	<6	<6	> 200	> 27.6	<6
O=C(NO)[C@@H]1C[C@H](O)CN1C(=O)c1ccc(C#Cc2ccc(CN3CCCCC3)cc2)cc1	<6	32 (≈ 14.3 µg/mL)	19.2	13	10	> 256	11	9	<6	<6	9	54.5	7.5	9
O=C(NO)[C@@H]1C[C@H](O)CN1C(=O)c1ccc(C#Cc2ccc(CN3CCSCC3)cc2)cc1	14	8 (≈ 3.72 µg/mL)	21.3	9	18	128 (≈ 59.6 µg/mL)	10	15	13	<6	11	32.8	4.5	14
O=C(NO)[C@@H]1CCCN1C(=O)c1ccc(C#Cc2ccc(CN3CCSCC3)cc2)cc1	14	8 (≈ 3.6 µg/mL)	18	10	14	128 (≈ 57.5 µg/mL)	12	18	12.7	<6	11	45.2	6.2	14
O=C(NO)[C@@H]1C[C@H](O)CN1C(=O)c1ccc(C#Cc2ccccc2)cc1	<6	64 (≈ 22.4 µg/mL)	14.3	7	<6	> 256	7	<6	<6	<6	7	> 200	> 27.6	7
O=C(NO)[C@@H]1CCCN1C(=O)c1ccc(C#Cc2ccccc2)cc1	8	128 (≈ 42.8 µg/mL)	12	7	<6	> 256	<6	<6	<6	<6	8	> 200	> 27.6	8
O=C(NO)[C@@H]1CCCN1C(=O)c1ccc(C#Cc2ccc(CN3CCCCC3)cc2)cc1	10	128 (≈ 55.2 µg/mL)	18.7	11	12	> 256	10	13	7	<6	9	> 200	> 27.6	8
